Here are results for seven compounds from ChEMBL document CHEMBL1201862, “PubChem BioAssay data set” (2004).

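Results reflect a 48-hour exposure of cells in 96-well plates to compound at five concentrations. The concentration for 50% growth inhibition is given as GI50.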 Calls of active or inactive are those of the source. No stated cut-off is given here; in the data, active = GI50 up to about 1.1 µM and inactive = higher. Bounds are passed on as bounds.

Holding throughout (assay): growth of human tumour cells (NCI), 48 h
For experiment [1], the system named is CCRF-CEM.
The subject of experiment [2] is SR.
The subject of experiment [3] is NCI-H460.
In experiment [4] the test system is U-251.
Experiment [5] deals with SNB-75.
In experiment [6] the test system is MCF7.
The test system of experiment [7] is RPMI-8226.
The test system of experiment [8] is UACC-62.
For experiment [9], the system named is 786-0.
Experiment [10] deals with HOP-92.
For experiment [11], the system named is DU-145.
The subject of experiment [12] is Hs-578T.
The subject of experiment [13] is HL-60.
Experiment [14] relates to CAKI-1.
Experiment [15] concerns SW-620.
In experiment [16] the test system is K562.
Experiment [17] has as its system SK-MEL-28.
The subject of experiment [18] is SN12C.
In experiment [19] the test system is NCI-H226.
Experiment [20] deals with A549.

With `COC(=O)c1ccccc1CC1Cc2ccc3c(c2C1=O)CCC3` (stereo not given), the GI50 in experiment [1] is 55.8 µM (inactive); in experiment [2] it was 31 µM (inactive); in experiment [3], 92.3 µM (inactive); in [4] it was 51.1 µM (inactive); in experiment [5], 13.8 µM (inactive); in experiment [6], 20.7 µM (inactive). Further, the GI50 in experiment [7] is 30.9 µM (inactive); in experiment [8], 39.5 µM (inactive); in [9], 80.5 µM (inactive); in [10], 22.4 µM (inactive); in experiment [11], > 100 µM (inactive); in experiment [12] it was 43.3 µM (inactive). In addition, the GI50 is 16.6 µM (inactive) in experiment [13]; 55.1 µM (inactive) in experiment [14]; 99.1 µM (inactive) in experiment [15]; 33.2 µM (inactive) in experiment [16]; 37.2 µM (inactive) in experiment [17]; > 100 µM (inactive) in [18]. Also, the GI50 in experiment [19] was 77.8 µM (inactive); in experiment [20] it was > 100 µM (inactive).

Regarding `CC(=O)OCC1OC(N2C(C)=C(C(C)=O)C(c3ccc(Cl)cc3)C(C#N)=C2S)C(OC(C)=O)C(OC(C)=O)C1OC(C)=O` (stereo not given), the GI50 is 44.1 µM (inactive) in experiment [1]; 28.2 µM (inactive) in [2]; 45.1 µM (inactive) in [3]; 66.5 µM (inactive) in experiment [4]; 27.9 µM (inactive) in experiment [5]; 47 µM (inactive) in [6]. In addition, the GI50 in experiment [7] is 37.9 µM (inactive); in experiment [8], 19.9 µM (inactive); in [9], 35.6 µM (inactive); in experiment [10] it was 33.6 µM (inactive); in experiment [11], 68.5 µM (inactive); in [12], 28.5 µM (inactive). The GI50 in experiment [13] was 37.3 µM (inactive); in [14], > 100 µM (inactive); in experiment [15] it was 5.46 µM (inactive); in experiment [16], 31.1 µM (inactive); in [17] it was 47.1 µM (inactive); in experiment [18], 85.9 µM (inactive). Moreover, the figures for the GI50 in experiment [19] and in experiment [20] were 44.1 µM (inactive) and 49.9 µM (inactive), respectively.

`CCC1=C(c2ccc(OC)cc2)CC[C@]2(CCNC2=O)[C@@H]1C`: the GI50 in experiment [1] was 24.8 µM (inactive); in [2], 24.2 µM (inactive); in [3], 28.2 µM (inactive); in experiment [4], 29.9 µM (inactive); in experiment [5], 27.4 µM (inactive); in [6] it was 21.9 µM (inactive). The GI50 in experiment [7] is 16.3 µM (inactive); in experiment [8] it was 24.4 µM (inactive); in [9], 42.5 µM (inactive); in [10], 40.7 µM (inactive); in experiment [11], 33.3 µM (inactive); in experiment [12], 24.5 µM (inactive). Also, the GI50 in [13] is 51.3 µM (inactive); in experiment [14], 48.3 µM (inactive); in experiment [15] it was 44.2 µM (inactive); in experiment [16], 21.5 µM (inactive); in [17], 30.5 µM (inactive); in [18], 37.8 µM (inactive). Moreover, the values for the GI50 in [19] and in experiment [20] were 37.9 µM (inactive) and 37.6 µM (inactive), respectively.

With `CC1=NN(C(=O)CC(=O)Nc2ccccc2Cl)C(=O)C1/N=N\c1ccc(S(=O)(=O)c2ccc(/N=N/C3C(=O)N(C(=O)CC(=O)Nc4ccccc4Cl)N=C3C)cc2)cc1` (stereo not given), the GI50 in experiment [1], in experiment [2], in experiment [3], in [4], in [5] and in [6] was > 100 µM (inactive) each time. In addition, the GI50 in experiment [7], in experiment [8], in experiment [9], in experiment [10], in experiment [11] and in experiment [12] was > 100 µM (inactive) throughout. Moreover, the GI50 in experiment [13], in experiment [14], in experiment [15], in [16], in experiment [17] and in [18] was > 100 µM (inactive) in each case. Also, the GI50 in experiment [19] and in experiment [20] was > 100 µM (inactive) in each case.

Regarding `CC(C)OP(=O)(CCCCCCCCC/C=C/c1ccc2c(c1)OCCOCCOCCOCCO2)OC(C)C`, the GI50 was 2.71 µM (inactive) in [1]; 4.22 µM (inactive) in [2]; 2.61 µM (inactive) in experiment [3]; 2.75 µM (inactive) in [4]; 3.01 µM (inactive) in experiment [5]; 3.23 µM (inactive) in [6]. The GI50 in experiment [7] was 1.41 µM (inactive); in experiment [8], 3.79 µM (inactive); in experiment [9] it was 3.78 µM (inactive); in experiment [10] it was 2.2 µM (inactive); in [11], 4.59 µM (inactive); in experiment [12], 2.45 µM (inactive). Besides, the GI50 in [13] was 7.67 µM (inactive); in experiment [14], 3.51 µM (inactive); in experiment [15] it was 3.82 µM (inactive); in experiment [16], 6.37 µM (inactive); in [17] it was 6.61 µM (inactive); in [18] it was 3.36 µM (inactive). Besides, the GI50 in [19] was 3.37 µM (inactive); in experiment [20] it was 3.49 µM (inactive).

With `COc1ccc(/C=C2\CCCC(CN(C)C)C2=O)cc1` (stereo not given), the GI50 in experiment [1] is 0.971 µM (active); in experiment [2], 1.02 µM (active); in experiment [3] it was 21.1 µM (inactive); in experiment [4], 1.95 µM (inactive); in [5], 7.45 µM (inactive); in experiment [6], 0.638 µM (active). Moreover, the GI50 in experiment [7] was 0.223 µM (active); in experiment [8], 1.95 µM (inactive); in experiment [9], 1.79 µM (inactive); in experiment [10], 4.35 µM (inactive); in [11] it was 16.6 µM (inactive); in experiment [12], 3.02 µM (inactive). For the same compound, the GI50 in experiment [13] was 0.618 µM (active); in experiment [14] it was 1.69 µM (inactive); in experiment [15] it was 0.891 µM (active); in experiment [16] it was 1.24 µM (inactive); in experiment [17], 2.01 µM (inactive); in experiment [18], 2.56 µM (inactive). For the same compound, the GI50 in experiment [19] is 18.1 µM (inactive); in experiment [20], 17.7 µM (inactive).

Turning to `O=C(/C=C/c1ccccc1)c1ccccc1` [CHALCONE], the GI50 in [1] was > 4.83 µM (inactive); in experiment [2], > 6.58 µM (inactive); in experiment [3], > 9.55 µM (inactive); in experiment [4], > 10 µM (inactive); in [5] it was > 10 µM (inactive); in [6], 2.7 µM (inactive). The GI50 in experiment [7] was > 4.85 µM (inactive); in [8], > 10 µM (inactive); in [9] it was > 10 µM (inactive); in [10], > 10 µM (inactive); in experiment [11] it was > 10 µM (inactive); in [12] it was > 10 µM (inactive). In addition, the GI50 is 4.07 µM (inactive) in experiment [13]; > 10 µM (inactive) in experiment [14]; 3.34 µM (inactive) in experiment [15]; > 4.84 µM (inactive) in experiment [16]; > 10 µM (inactive) in experiment [17]; > 10 µM (inactive) in experiment [18]. In addition, the GI50 in [19] and in experiment [20] was > 10 µM (inactive) in each case.
